Earlier results in paper PMC6222850, “^66Ga: A Novelty or a Valuable Preclinical Screening Tool for the Design of Targeted Radiopharmaceuticals?” (Molecules : A Journal of Synthetic Chemistry and Natural …, 2018).

Tested on: LNCaP tumors
Design: method as in PMID 29623376

O=C(O)CC[C@H](NC(=O)N[C@@H](CCCCNC(=O)[C@H](Cc1ccc2ccccc2c1)NC(=O)[C@H]1CC[C@H](CNC(=O)CN2CCN(CC(=O)O)CCN(CC(=O)O)CCN(CC(=O)O)CC2)CC1)C(=O)O)C(=O)O [PSMA-617]
Clearance from blood: fast clearance from blood
